Test results from patent US20250017853A1, “NANOSUSPENSION CONTAINING PROGERININ, AND PREPARATION METHOD THEREFOR” (PRG S&Tech Inc., priority 2021, published 2025).

Experiments:
[1] = Excipient compatibility, binary mixtures 1:10, 40° C./75% RH over 2 weeks; assay type: physicochemical
Experimental: To assess compatibility with excipients, progerinin was mixed with HPMC E3, TPGS, and potassium sorbate in a ratio of 1:10, and the effectiveness of the drug (API) components was measured under 40° C./75% RH condition over 2 weeks and shown in Table 9 and Table 10.

[2] = Stability of spray-dried solid dispersions under high temperature and high humidity for 2 weeks; assay type: physicochemical; settings: for Appearance / HPLC results Purity / XRPD: open
[3] = BCS classification, permeability and solubility of progerinin; assay type: physicochemical
Source text: In particular, the above-mentioned progerinin is poorly soluble to the extent that its solubility in water is close to zero, and the solubility is very low even in existing ingestible solvents, such that it is necessary to develop a formulation that enables long-term intake and body absorption through the introduction of new technology.

[4] = system: progeria-induced animal model; settings: background art; cited from earlier work
[5] = BCS criteria; cited from earlier work

Compound: CC1(C)Oc2cc3oc(=O)ccc3cc2C[C@@H]1OC/C=C/c1ccccc1 [progerinin, (7S)-(+)-8,8-dimethyl-7-(3-phenylallyloxy)-7,8-dihydro-6H-pyrano [3,2-g]chromen-2-one]
- API(% Area) ([1]; 40° C./75% RH, 1 week): 99.94 % Area
- RRT = 1.02 ([1]; 40° C./75% RH, 1 week): 0.06
- API(% Area) ([1]; 40° C./75% RH, 2 weeks): 99.95 % Area
- RRT = 1.02 ([1]; 40° C./75% RH, 2 weeks): 0.05
- API(% Area) ([1]; Initial): 99.94 % Area
- RRT = 1.02 ([1]; Initial): 0.06
- compatibility with excipients HPMC E3, TPGS and potassium sorbate ([1]; text summary of Tables 9 and 10): no effect on the drug
- Appearance ([2]; 25° C./60% RH): White
- HPLC results Purity ([2]; 25° C./60% RH, after 1 week): 99.85%
- XRPD ([2]; 25° C./60% RH, after 1 week): Unchanged
- HPLC results Purity ([2]; 25° C./60% RH, after 2 weeks): 99.85%
- XRPD ([2]; 25° C./60% RH, after 2 weeks): Unchanged
- Appearance ([2]; 40° C./75% RH): White
- HPLC results Purity ([2]; 40° C./75% RH, after 1 week): 99.85%
- XRPD ([2]; 40° C./75% RH, after 1 week): Unchanged
- HPLC results Purity ([2]; 40° C./75% RH, after 2 weeks): 99.85%
- XRPD ([2]; 40° C./75% RH, after 2 weeks): Unchanged
- Initial purity ([2]; Initial): 99.85%
- solubility in water [3]: close to zero
- survival period of progeria-induced animal model [4]: prolonging a survival period
- solubility in aqueous media [5]: low solubility in aqueous media
